Measurements reported in patent US20240002952A1, “METHOD FOR IN VITRO DIAGNOSIS OF MUCOSITIS IN CANCER PATIENTS UNDERGOING ANTITUMOR THERAPY” (ISTITUTI FISIOTERAPICI OSPITALIERI, priority 2020, published 2024).

Legend:
[1] = system: Primary epidermal keratinocytes (HEKa)
[2] = system: Primary gingival keratinocytes

## O=c1[nH]cc(F)c(=O)[nH]1 [5-FLUOROURACILE, 5-fluorouracile]
[1]
  CC50 Value Primary epidermal keratinocytes (HEKa): Not calculable
[2]
  CC50 Value Primary gingival keratinocytes: Not calculable

## Nc1ncn([C@@H]2O[C@H](CO)[C@@H](O)[C@H]2O)c(=O)n1 [AZACYTIDINE, azacytidine]
[1]
  CC50: 51.2 µM
[2]
  CC50: 1.8 µM

## CCCCCOC(=O)Nc1nc(=O)n([C@@H]2O[C@H](C)[C@@H](O)[C@H]2O)cc1F [CAPECITABIN, capecitabin]
[1]
  CC50 Value Primary epidermal keratinocytes (HEKa): Not calculable
[2]
  CC50: 103 µM

## O=C1[O][Pt]2([NH][C@@H]3CCCC[C@H]3[NH]2)[O]C1=O [OXALIPLATIN, oxaliplatin]
[1]
  CC50: 32.3 µM
[2]
  CC50: 46 µM
